In patent publication EP4603105A1, “PHARMACEUTICAL COMPOSITION CONTAINING CYCLIC COMPOUND HAVING SELECTIVE KRAS INHIBITORY EFFECT AGAINST HRAS AND NRAS” (CHUGAI SEIYAKU KABUSHIKI KAISHA, priority 2022, dated 2024):

Experiments:
[1] = biological target: GDP-bound NRAS wild-type protein (Homo sapiens, UniProt P01111); test: Binding to NRAS by surface plasmon resonance (SPR), KD and KD ratio to KRAS
How it was run: (§1)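 Measured at 30°C: SPR with GDP-loaded, E. coli-expressed biotin-Avi RAS captured (~100–300 RU), ascending 75 s compound injections, HBS pH 7.4 with GDP, MgCl2, 4% DMSO. KD from 1:1 fit.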

[2] = biological target: GDP-bound KRAS wild-type protein (Homo sapiens, UniProt P01116); test: Binding to KRAS by surface plasmon resonance (SPR), dissociation constant KD; settings: 1:1 binding model
GDP-bound KRAS wild-type protein, sequence (P01116 1-188 isoform P01116-2): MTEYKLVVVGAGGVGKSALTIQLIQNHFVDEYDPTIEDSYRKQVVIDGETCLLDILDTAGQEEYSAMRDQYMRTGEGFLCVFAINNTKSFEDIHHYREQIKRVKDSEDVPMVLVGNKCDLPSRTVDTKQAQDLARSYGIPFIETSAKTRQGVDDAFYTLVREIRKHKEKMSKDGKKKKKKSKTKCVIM
How it was run: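 Compound binding is evaluated by SPR single-cycle kinetics, with concentrations added intermittently from low to high for 75 s each. Target surfaces carry GDP-loaded biotinylated Avi-RAS at about 100–300 RU, regenerated after each cycle; temperature 30°C. A 1:1 binding model gives KD.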

[3] = system: human lung cancer strain NCI-H441; type: cell-based
How it was run: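 Signal came from […] measured per well once the reagent was added. Beforehand, cells were cultured at 37°C and 5% carbon dioxide on a compound series serially diluted in dimethyl sulfoxide.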

HRAS wild-type protein = HRAS wild-type protein (Homo sapiens, UniProt P01112); test: Binding to HRAS by surface plasmon resonance (SPR), KD and KD ratio to KRAS
HRAS wild-type protein, sequence (P01112 whole entry): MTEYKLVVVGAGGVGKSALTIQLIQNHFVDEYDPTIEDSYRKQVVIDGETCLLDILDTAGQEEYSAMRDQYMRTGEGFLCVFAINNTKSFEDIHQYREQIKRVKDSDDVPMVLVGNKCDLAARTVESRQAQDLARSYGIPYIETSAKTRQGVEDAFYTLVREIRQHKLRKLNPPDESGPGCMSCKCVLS
How it was run: as §1

[4] = ratio of the KD value with respect to GDP-bound NRAS wild-type protein to the KD value with respect to KRAS
[5] = ratio of the KD value with respect to HRAS wild-type protein to the KD value with respect to KRAS
[6] = ratio of KD value for GDP-bound NRAS wild-type protein to KD value for KRAS (SPR)
[7] = ratio of KD value for HRAS wild-type protein to KD value for KRAS (SPR)

GDP-bound NRAS wild-type protein, sequence (P01111 whole entry): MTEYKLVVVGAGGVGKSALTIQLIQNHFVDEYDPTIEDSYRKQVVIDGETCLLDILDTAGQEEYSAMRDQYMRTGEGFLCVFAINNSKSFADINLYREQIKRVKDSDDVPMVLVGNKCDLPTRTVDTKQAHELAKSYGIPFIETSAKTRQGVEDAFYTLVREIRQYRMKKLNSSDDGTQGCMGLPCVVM

Structure (SMILES)	Kd ([2]; Single Cycle Kinetics) [nM]	IC50 [3] [nM]	Kd [2] [nM]	NRAS /KRAS [1, 4]	HRAS /KRAS (HRAS wild-type protein; [5])	NRAS /KRAS ([1]; ratio of KD for GDP-bound NRAS wild-type protein to KD for KRAS)	HRAS /KRAS (HRAS wild-type protein; ratio of KD for HRAS wild-type protein to KD for KRAS)	NRAS /KRAS [1, 6]	HRAS /KRAS (HRAS wild-type protein; [7])
CCO[C@@H]1C[C@H]2C(=O)NC3(CCC3)C(=O)N(C)[C@@H](C3CCCC3)C(=O)N(C)[C@H](C(=O)N3CCOCC3)CC(=O)N(C)[C@@H](Cc3cccnc3)C(=O)N[C@@H]([C@@H](C)CC)C(=O)N(C)CC(=O)N(C)[C@H]3CCCCN(C3=O)[C@@H](Cc3ccc(C(F)(F)F)cc3)C(=O)N(C)CC(=O)N[C@@H](CCc3cc(F)c(C(F)(F)F)c(F)c3)C(=O)N2C1 [PP0718]	0.029	42.3		C (A compound having a KD ratio of 0.1 or more and less than 3 is denoted as C)	B (a compound having 3 or more and less than 10 is denoted as B)				
CC[C@H](C)[C@@H]1NC(=O)[C@H](CC2CC2)N(C)C(=O)C[C@@H](C(=O)N(C)C)N(C)C(=O)[C@H](C2CCCC2)N(C)C(=O)C2(CCC2)N(C)C(=O)[C@@H]2C[C@@H](C)CN2C(=O)[C@H](CCc2cc(F)c(C(F)(F)F)c(F)c2)NC(=O)CN(C)C(=O)[C@H](Cc2ccc(C)cc2)N2CC/C=C\C[C@@H](C2=O)N(C)C(=O)CN(C)C1=O [PP1800]	0.051	6.5						A (a compound having 10 or more and less than 20 is denoted as A)	A (a compound having 10 or more and less than 20 is denoted as A)
CC[C@H](C)[C@@H]1NC(=O)[C@H](CC)N(C)C(=O)C[C@@H](C(=O)N(C)C)N(C)C(=O)[C@H](C2CCCC2)N(C)C(=O)C2(CCCC2)N(C)C(=O)[C@@H]2C[C@@H](C)CN2C(=O)[C@H](CCc2cc(F)c(C(F)(F)F)c(F)c2)NC(=O)CN(C)C(=O)[C@H](Cc2ccc(C)cc2)N2CC/C=C\C[C@@H](C2=O)N(C)C(=O)CN(C)C1=O [PP1812]	0.59	7.8						A (a compound having 10 or more and less than 20 is denoted as A)	A (a compound having 10 or more and less than 20 is denoted as A)

Second part, led by results:

Kd ([2]; Single Cycle Kinetics) [nM]	IC50 [3] [nM]	Kd [2] [nM]	Structure (SMILES)	NRAS /KRAS [1, 4]	HRAS /KRAS (HRAS wild-type protein; [5])	NRAS /KRAS ([1]; ratio of KD for GDP-bound NRAS wild-type protein to KD for KRAS)	HRAS /KRAS (HRAS wild-type protein; ratio of KD for HRAS wild-type protein to KD for KRAS)	NRAS /KRAS [1, 6]	HRAS /KRAS (HRAS wild-type protein; [7])
0.21	3.7		C=CCN1CC(=O)N(C)[C@H]2C/C=C\CCN(C2=O)[C@@H](Cc2ccc(C)cc2)C(=O)N(C)CC(=O)N[C@@H](CCc2ccc(C(F)(F)F)c(OC)c2)C(=O)N2C[C@H](OCC)C[C@H]2C(=O)NC2(CC(C)(C)C2)C(=O)N(C)[C@@H](C2CCCC2)C(=O)N(C)[C@H](C(=O)N(C)C)CC(=O)N(C)[C@@H](CC(C)C)C(=O)N[C@@H]([C@@H](C)CC)C1=O [PP2058]	A (a compound having 10 or more and less than 20 is denoted as A)	A (a compound having 10 or more and less than 20 is denoted as A)				
0.1	5.3		CC[C@H](C)[C@@H]1NC(=O)[C@H](CC(C)C)N(C)C(=O)C[C@@H](C(=O)N(C)C)N(C)C(=O)[C@H](C2CCCC2)N(C)C(=O)C2(CC(C)(C)C2)NC(=O)[C@@H]2C[C@@H](C)CN2C(=O)[C@H](CCc2cc(F)c(C(F)(F)F)c(F)c2)NC(=O)CN(C)C(=O)[C@H](Cc2ccc(C)cc2)N2CC/C=C\C[C@@H](C2=O)N(C)C(=O)CN(C)C1=O [PP2223]	A (a compound having 10 or more and less than 20 is denoted as A)	A (a compound having 10 or more and less than 20 is denoted as A)				
	136	1.2	CCC[C@H]1C(=O)N[C@@H]([C@@H](C)CC)C(=O)N(C)CC(=O)N(C)[C@H]2C/C=C\CCN(C2=O)[C@@H](Cc2ccc(C)cc2)C(=O)N(C)CC(=O)N[C@@H](CCc2ccc(Cl)c(Cl)c2)C(=O)N2C[C@H](OCC)C[C@H]2C(=O)NC2(CC(C)(C)C2)C(=O)N(C)[C@@H](CC2CC2)C(=O)N(C)[C@H](C(=O)N(C)C)CC(=O)N1C [PP2799]			A (a compound having 10 or more and less than 20 is denoted as A)	A (a compound having 10 or more and less than 20 is denoted as A)		
